Test [1] deals with Rat liver α-2,3-ST (Rattus norvegicus (Rat), UniProt Q02734). The test is described as follows: α-2,3-ST inhibition assay (IC50), RP-HPLC of sialylated disaccharide product. Format: biochemical. As to conditions: for fold potency increase over 19: vs compound 19. Here is the method: Compound synthesis was carried out with the following materials according the following general procedures. All chemicals and buffers were purchased from Sigma, Aldrich, or Acros Organics; and all amino acids were purchased from Advanced Chemtech. CMP-Neu5Ac was synthesized starting with sialic acid (Traving & Schauer, Cell. Mol. Life Sci., 1998, 54:1330; Schwarzkopf et al., Proc. Natl. Acad. Sci. USA, 2002, 99:5267). Synthesis of lactose acceptor was achieved as described in Harduin-Lepers et al., Biochimie, 2001, 83:727. Rat liver α-2,3-ST was obtained from CalBiochem at a concentration of 3.7 mU/μL, stored at −80° C., and used within one week. Melting points (m.p.) were recorded with a capillary melting point apparatus (Electrothermal MEL-TEMP); FT-IR spectra were recorded with Perkin Elmer FT-IR Spectrometer (Paragon 1000) in KBr pellets; ^1H and ^13C NMR spectra were recorded with Bruker AMX400 or 500 MHz instruments. Proton chemical shifts (δ) are reported in parts per million (ppm) relative to the methine singlet at 7.24 ppm for the residual CHCl3 in the deuteriochloroform, or the methyl pentet at 3.30 ppm for the residual CHD2OD in the methanol-d4. Carbon chemical shifts are reported in ppm relative to the internal ^13C signals in CDCl3 (77.0 ppm) and CD3OD-d4 (49.0 ppm). Mass spectra were obtained with a FAB JMS-700 double focusing mass spectrometer (JEOL, Tokyo, Japan), MALDI Voyager DE-PRO (Applied Biosystem Houston, USA), and ESI Finnigan LCQ mass spectrometer (Thermo Finnigan, San Jose, Calif., United States) in negative mode. […] The separation procedure was performed using H2O/0.1% trifluoroacetic acid (TFA) (A) and CH3CN/0.05% TFA (B) as eluents.
Each compound was tested for α-2,3-ST inhibition using CMP-Neu5Ac as a substrate and a modified disaccharide with a 4,5-dimethoxy-2-nitrobenzyl group as a UV-labeled acceptor. Specifically, inhibition assays were performed in triplicate in reaction solution containing 200 mM MES buffer, 100 mM sodium chloride, 0.5 mM disodium-EDTA, 0.01% Triton X-100, 20 μM modified disaccharide, 1.4 mU α-2,3-ST and inhibitor (in dimethyl sulfoxide) in a total volume of 55. Reactions were incubated at 37° C. for 10 minutes at which point 1 mM CMP-Neu5Ac (to a final concentration 3 μM) was added. The solution was then incubated at 37° C. until a detectable amount of product was produced. The reaction was terminated by quenching the solution mixture with heat at 100° C. for 5 minutes. Enzyme activity was determined by monitoring the quantity of sialylated disaccharide product produced over time at 348 nm by RP-HPLC (Supelco Discovery® HS C18, 5 μm, 4.6 mm×25 cm).

Test [2] deals with CL1-5 lung cancer cells. The test is described as follows: Cytotoxicity / cell growth, trypan blue exclusion. Format: cell-based. As to conditions: 5 μM or 10 μM, 48 hours, FBS-free media. Here is the method: To determine the effect of the synthesized membrane-permeable α-2,3-ST inhibitors disclosed in Example 1 on cellular processes, in vitro cytotoxicity and adhesion assays were performed on the highly metastatic lung cancer cell line CL1-5. CL1-5 cells were plated at 1×10^6 cells per 60 mm culture dish in DMEM containing 10% fetal bovine serum (FBS) in 5% CO2. The following day the media was replaced with FBS-free media containing inhibitors at 5 μM or 10 μM concentration in DMSO. Controls cells were treated with 0.1% DMSO-containing medium without inhibitor. Cell number and viability were determined 48 hours later by trypan blue exclusion. Treatment with three α-2,3-ST inhibitors, N-Pentyonic (compound 21), Lith-Triethyl-de (compound 20), and Lith-o-Asp (compound 13), inhibited CL1-5 cell growth by between 10-20% compared to control (FIG. 2A).

Where [3] appears, read: α-2,3-ST, CMP-Neu5Ac substrate, triplicate, read-out: IC50.

Where two headings read alike, the source gives them in different places.

Rat liver α-2,3-ST, sequence (Q02734 whole entry): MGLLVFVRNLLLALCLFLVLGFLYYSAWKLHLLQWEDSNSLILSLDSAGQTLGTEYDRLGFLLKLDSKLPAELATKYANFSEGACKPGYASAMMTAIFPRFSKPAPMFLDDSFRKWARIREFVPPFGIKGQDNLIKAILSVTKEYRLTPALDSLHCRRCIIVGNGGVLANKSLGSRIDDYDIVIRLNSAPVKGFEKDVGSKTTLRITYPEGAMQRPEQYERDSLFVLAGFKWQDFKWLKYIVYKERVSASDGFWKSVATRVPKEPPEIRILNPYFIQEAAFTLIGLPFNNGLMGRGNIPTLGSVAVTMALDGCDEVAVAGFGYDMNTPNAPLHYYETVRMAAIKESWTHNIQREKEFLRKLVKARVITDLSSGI

On to `C[C@H](CCCO)C1CC[C@H]2C3CC[C@@H]4C[C@H](O)CC[C@]4(C)C3CC[C@]12C` (stereo partly drawn) [Compound 7, (3R,5R,10S,13R,14S)-17-((R)-5-hydroxypentan-2-yl)-10,13-dimethyl-hexadecahydro-1H-cyclopenta[a]phenanthren-3-ol], for which the “fold decrease in potency relative to lithocholic acid” value in test [1] (vs lithocholic acid) was in the range of 5 to 17 fold. For the same compound, the IC50 in test [1] (setting [3]) turned out to be 0.351 mM.
In the same order, the values of `C[C@H](CCCOP(=O)(Oc1ccccc1)Oc1ccccc1)C1CC[C@H]2C3CC[C@@H]4C[C@H](O)CC[C@]4(C)C3CC[C@]12C` (stereo partly drawn) [Compound 8, (R)-4-((3R,5R,10S,13R,14S)-3-hydroxy-10,13-dimethyl-hexadecahydro-1H-cyclopenta[a]phenanthren-17-yl)pentyl diphenyl phosphonate] are 5 to 17 fold and > 0.1 mM.
As for `C[C@H](CCC(=O)NCC(=O)O)C1CC[C@H]2C3CC[C@@H]4C[C@H](O)CC[C@]4(C)C3CC[C@]12C` (stereo partly drawn) [Compound 9, 2-((R)-4-((3R,5R,10S,13R,14S)-3-hydroxy-10,13-dimethyl-hexadecahydro-1H-cyclopenta[a]phenanthren-17-yl)pentanamido)acetic acid], the IC50 in test [1] (setting [3]) is 0.025 mM.
Same read-out and setting: the figure for `C[C@H](CCC(=O)N[C@@H](CC(=O)O)C(=O)O)C1CC[C@H]2C3CC[C@@H]4C[C@H](O)CC[C@]4(C)C3CC[C@]12C` (stereo partly drawn) [Compound 10, (S)-2-((R)-4-((3R,5R,10S,13R,14S)-3-hydroxy-10,13-dimethyl-hexadecahydro-1H-cyclopenta[a]phenanthren-17-yl)pentanamido)succinic acid] is 0.016 mM.
For `C[C@H](CCC(=O)O)C1CC[C@H]2C3CC[C@@H]4CC(=O)CC[C@]4(C)C3CC[C@]12C` (stereo partly drawn) [Compound 11, (R)-4-((5R,10S,13R,14S)-10,13-dimethyl-3-oxo-hexadecahydro-1H-cyclopenta[a]phenanthren-17-yl)pentanoic acid], the “fold decrease in potency relative to lithocholic acid” value in test [1] (vs lithocholic acid) is on record as 7 fold. In addition, the IC50 in test [1] (setting [3]) came out at 0.139 mM.
Regarding `C[C@H](CCC(=O)O)C1CC[C@H]2C3CC[C@@H]4C[C@H](OC(=O)CCC(=O)O)CC[C@]4(C)C3CC[C@]12C` (stereo partly drawn) [Compound 12, (R)-4-((3R,5R,10S,13R,14S)-3-(3-carboxypropanoyloxy)-10,13-dimethyl-hexadecahydro-1H-cyclopenta[a]phenanthren-17-yl)pentanoic acid], the “fold potency over lithocholic acid” value in test [1] (vs lithocholic acid) was 2 fold. For the same compound, the IC50 in test [1] (setting [3]) was 0.012 mM.
`C[C@H](CCC(=O)OC(C)(C)C)C1CC[C@H]2C3CC[C@@H]4C[C@H](OC(=O)CCC(=O)O)CC[C@]4(C)C3CC[C@]12C` (stereo partly drawn) [Compound 14, 4-((3R,5R,10S,13R,14S)-17-((R)-5-tert-butoxy-5-oxopentan-2-yl)-10,13-dimethyl-hexadecahydro-1H-cyclopenta[a]phenanthren-3-yloxy)-4-oxobutanoic acid]: in test [1] (setting [3]), the IC50 amounted to 0.013 mM.
On the same count and under the same terms, the figure for `C[C@H](CCC(=O)NCC(=O)O)C1CC[C@H]2C3CC[C@@H]4C[C@H](OC(=O)CCC(=O)O)CC[C@]4(C)C3CC[C@]12C` (stereo partly drawn) [Compound 15, 4-((3R,5R,10S,13R,14S)-17-((R)-5-(carboxymethylamino)-5-oxopentan-2-yl)-10,13-dimethyl-hexadecahydro-1H-cyclopenta[a]phenanthren-3-yloxy)-4-oxobutanoic acid] is 0.022 mM; for `C[C@H](CCC(=O)N[C@@H](CC(=O)O)C(=O)O)C1CC[C@H]2C3CC[C@@H]4C[C@H](OC(=O)CCC(=O)O)CC[C@]4(C)C3CC[C@]12C` (stereo partly drawn) [Compound 16, (S)-2-((R)-4-((3R,5R,10S,13R,14S)-3-(3-carboxypropanoyloxy)-10,13-dimethyl-hexadecahydro-1H-cyclopenta[a]phenanthren-17-yl)pentanamido)succinic acid] it is 0.018 mM.
As for `C[C@H](CCC(=O)O)C1CC[C@H]2C3CC[C@@H]4C[C@H](OC(=O)[C@H](N)CC(=O)O)CC[C@]4(C)C3CC[C@]12C` (stereo partly drawn) [Compound 17, (R)-4-((3R,5R,10S,13R,14S)-3-((R)-2-amino-3-carboxypropanoyloxy)-10,13-dimethyl-hexadecahydro-1H-cyclopenta[a]phenanthren-17-yl)pentanoic acid], in test [1] (vs compound 13), the “fold improvement in potency over 13” value amounted to 2 fold. Moreover, the IC50 in test [1] (setting [3]) worked out at 0.006 mM.
Take `C[C@H](CCCn1cc(CCO)nn1)C1CC[C@H]2C3CC[C@@H]4C[C@H](O)CC[C@]4(C)C3CC[C@]12C` (stereo partly drawn) [Compound 18, (3R,5R,10S,13R,14S)-17-((R)-5-(4-(2-hydroxyethyl)-1H-1,2,3-triazol-1-yl)pentan-2-yl)-10,13-dimethyl-hexadecahydro-1H-cyclopenta[a]phenanthren-3-ol]: the “fold less potent than 21” value in test [1] (vs compound 21) is reported as “at least 10 fold”. Further, the “fold less potent than 22” value in test [1] (vs compound 22) was ≥ 20 fold. Moreover, the IC50 in test [1] (setting [3]) is > 0.1 mM.
On to `C[C@H](CCCn1cc(CC(N)C(=O)O)nn1)C1CC[C@H]2C3CC[C@@H]4C[C@H](O)CC[C@]4(C)C3CC[C@]12C` (stereo partly drawn) [Compound 19, 2-amino-3-(1-((R)-4-((3R,5R,10S,13R,14S)-3-hydroxy-10,13-dimethyl-hexadecahydro-1H-cyclopenta[a]phenanthren-17-yl)pentyl)-1H-1,2,3-triazol-4-yl)propanoic acid], for which the IC50 in test [1] (setting [3]) is 0.083 mM.
Consider `CCOP(=O)(OCC)C(Cc1cn(CCC[C@@H](C)C2CC[C@H]3C4CC[C@@H]5C[C@H](O)CC[C@]5(C)C4CC[C@]23C)nn1)C(=O)O` (stereo partly drawn) [Compound 20, 2-(diethoxyphosphoryl)-3-(1-((R)-4-((3R,5R,10S,13R,14S)-3-hydroxy-10,13-dimethyl-hexadecahydro-1H-cyclopenta[a]phenanthren-17-yl)pentyl)-1H-1,2,3-triazol-4-yl)propanoic acid], for which the “inhibition of CL1-5 cell growth compared to control” value in test [2] is given as 10-20%. Moreover, the “fold potency increase over 19” value in test [1] is recorded as 8-12 fold. In test [1] (setting [3]), the half-maximal inhibitory concentration (IC50) came out at 0.007 mM.
The like results for `C[C@H](CCCn1cc(CCC(=O)O)nn1)C1CC[C@H]2C3CC[C@@H]4C[C@H](O)CC[C@]4(C)C3CC[C@]12C` (stereo partly drawn) [Compound 21, 3-(1-((R)-4-((3R,5R,10S,13R,14S)-3-hydroxy-10,13-dimethyl-hexadecahydro-1H-cyclopenta[a]phenanthren-17-yl)pentyl)-1H-1,2,3-triazol-4-yl)propanoic acid] were, in that order, 10-20%, 8-12 fold and 0.01 mM.
As to `C[C@H](CCC(=O)O)[C@H]1CC[C@H]2[C@@H]3CC[C@@H]4C[C@H](O)CC[C@]4(C)[C@H]3CC[C@]12C` [lithocholic acid], the IC50 in test [1] (steroid screen for α-2,3-ST inhibition, unit mM, read-out: IC50 value) is 0.021 mM.

For the origin of these results see patent US8940719B2, “Lithocholic acid analogues that inhibit sialyltransferase” (Academia Sinica, priority 2006, dated 2015).
